From the NIST ThermoML archive (doi:10.1016/j.jct.2009.05.004)

Assay: mn = molality of the nth substance listed, in mol/kg
Settings: Liquid, Vibrating tube method

[Br-].[Br-].[Zn+2] [zinc bromide] + CCO
Settings | mass density [kg/m3]
298.15 K, 39998 kPa, m1 = 0.1696 | 842.43
298.16 K, 5021 kPa, m1 = 1.887 | 1058.5
298.16 K, 15032 kPa, m1 = 0.05681 | 807.29
298.16 K, 15201 kPa, m1 = 0.9305 | 937
298.16 K, 15612 kPa, m1 = 0.1696 | 825.53
298.16 K, 15624 kPa, m1 = 0.3043 | 845.7
298.16 K, 20014 kPa, m1 = 0.4384 | 869.08
298.16 K, 29932 kPa, m1 = 0.3043 | 856.21
298.16 K, 34951 kPa, m1 = 0.1696 | 839.25
298.16 K, 35026 kPa, m1 = 1.887 | 1081.92
298.17 K, 5457 kPa, m1 = 0.3043 | 837.46
298.17 K, 25045 kPa, m1 = 0.05681 | 814.8
298.17 K, 25140 kPa, m1 = 1.887 | 1074.74
298.17 K, 25416 kPa, m1 = 0.1696 | 832.79
298.17 K, 35024 kPa, m1 = 0.9305 | 951.54
298.17 K, 39854 kPa, m1 = 0.3043 | 862.75
313.11 K, 20023 kPa, m1 = 0.1696 | 817.08
313.11 K, 39787 kPa, m1 = 1.887 | 1072.61
313.12 K, 29927 kPa, m1 = 1.887 | 1065.27
313.12 K, 34843 kPa, m1 = 1.887 | 1069.01
313.12 K, 39907 kPa, m1 = 0.1696 | 831.46
313.13 K, 4920 kPa, m1 = 0.4384 | 843.98
313.13 K, 14572 kPa, m1 = 0.1696 | 812.62
313.13 K, 24931 kPa, m1 = 0.1696 | 820.9
313.13 K, 25016 kPa, m1 = 1.887 | 1061.4
313.13 K, 35021 kPa, m1 = 0.05681 | 810.73
313.14 K, 5014 kPa, m1 = 0.05681 | 786.55
313.14 K, 5102 kPa, m1 = 0.3043 | 824.32
313.14 K, 9947 kPa, m1 = 0.9305 | 919.42
313.14 K, 29730 kPa, m1 = 0.4384 | 864.47
313.14 K, 34690 kPa, m1 = 0.4384 | 868
313.14 K, 39625 kPa, m1 = 0.3043 | 851.54
313.15 K, 1265 kPa, m1 = 0.05681 | 783.06
313.15 K, 1326 kPa, m1 = 0.3043 | 820.84
313.15 K, 1425 kPa, m1 = 1.49 | 988.5
313.15 K, 5027 kPa, m1 = 1.49 | 991.85
313.15 K, 9994 kPa, m1 = 1.887 | 1048.64
313.15 K, 10024 kPa, m1 = 0.05681 | 791.06
313.15 K, 10245 kPa, m1 = 0.3043 | 828.9
313.15 K, 10627 kPa, m1 = 1.49 | 996.89
313.15 K, 15329 kPa, m1 = 1.49 | 1000.98
313.15 K, 19809 kPa, m1 = 0.9305 | 927.83
313.15 K, 19932 kPa, m1 = 0.4384 | 856.94
313.15 K, 20014 kPa, m1 = 0.3043 | 837.09
313.15 K, 20065 kPa, m1 = 0.05681 | 799.53
313.15 K, 20324 kPa, m1 = 1.49 | 1005.17
313.15 K, 24735 kPa, m1 = 0.4384 | 860.72
313.15 K, 25035 kPa, m1 = 0.9305 | 932.01
313.15 K, 25647 kPa, m1 = 1.49 | 1009.46
313.15 K, 29901 kPa, m1 = 0.9305 | 935.73
313.15 K, 29925 kPa, m1 = 0.1696 | 824.61
313.15 K, 29954 kPa, m1 = 1.49 | 1012.81
313.15 K, 29964 kPa, m1 = 0.05681 | 807.13
313.15 K, 34524 kPa, m1 = 0.3043 | 848.04
313.15 K, 34627 kPa, m1 = 1.49 | 1016.31
313.15 K, 34851 kPa, m1 = 0.1696 | 828.08
313.15 K, 39846 kPa, m1 = 1.49 | 1020.06
313.15 K, 39878 kPa, m1 = 0.9305 | 942.83
313.15 K, 39881 kPa, m1 = 0.4384 | 871.49
313.15 K, 39914 kPa, m1 = 0.05681 | 814.03
313.16 K, 1622 kPa, m1 = 0.4384 | 840.91
313.16 K, 9861 kPa, m1 = 0.4384 | 848.44
313.16 K, 14924 kPa, m1 = 0.4384 | 852.81
313.16 K, 15002 kPa, m1 = 0.9305 | 923.82
313.16 K, 15021 kPa, m1 = 0.05681 | 795.37
313.16 K, 15032 kPa, m1 = 0.3043 | 833
313.16 K, 29952 kPa, m1 = 0.3043 | 844.75
313.16 K, 34974 kPa, m1 = 0.9305 | 939.43
313.17 K, 10022 kPa, m1 = 0.1696 | 808.74
313.17 K, 15110 kPa, m1 = 1.887 | 1053.14
313.17 K, 20144 kPa, m1 = 1.887 | 1057.41
313.17 K, 25481 kPa, m1 = 0.05681 | 803.78
313.17 K, 25921 kPa, m1 = 0.3043 | 841.73
313.18 K, 4967 kPa, m1 = 0.9305 | 914.91
313.19 K, 1520 kPa, m1 = 0.9305 | 911.69
313.19 K, 5004 kPa, m1 = 1.887 | 1044.1
313.2 K, 1456 kPa, m1 = 0.1696 | 801
313.2 K, 4848 kPa, m1 = 0.1696 | 804.13
313.24 K, 1850 kPa, m1 = 1.887 | 1041.15
333.12 K, 1327 kPa, m1 = 0.1696 | 782.58
333.12 K, 1898 kPa, m1 = 0.9305 | 892.88
333.12 K, 4943 kPa, m1 = 1.887 | 1024.22
333.12 K, 9762 kPa, m1 = 0.4384 | 830.56
333.12 K, 19882 kPa, m1 = 0.4384 | 840.07
333.12 K, 39840 kPa, m1 = 1.887 | 1055.35
333.13 K, 5145 kPa, m1 = 0.05681 | 769.04
333.13 K, 24749 kPa, m1 = 0.4384 | 844.29
333.13 K, 29989 kPa, m1 = 0.9305 | 919.06
333.13 K, 34942 kPa, m1 = 0.9305 | 922.93
333.14 K, 5187 kPa, m1 = 0.4384 | 825.95
333.14 K, 19787 kPa, m1 = 0.9305 | 910.38
333.14 K, 20014 kPa, m1 = 0.3043 | 820.51
333.14 K, 25451 kPa, m1 = 0.05681 | 788.08
333.14 K, 34776 kPa, m1 = 1.887 | 1051.46
333.15 K, 1541 kPa, m1 = 0.05681 | 765.27
333.15 K, 1627 kPa, m1 = 0.3043 | 802.62
333.15 K, 1698 kPa, m1 = 1.49 | 969.07
333.15 K, 4776 kPa, m1 = 0.1696 | 786.15
333.15 K, 5045 kPa, m1 = 1.49 | 972.54
333.15 K, 5098 kPa, m1 = 0.9305 | 896.23
333.15 K, 10025 kPa, m1 = 0.05681 | 773.96
333.15 K, 10027 kPa, m1 = 0.9305 | 901.19
333.15 K, 10046 kPa, m1 = 1.887 | 1029.4
333.15 K, 10624 kPa, m1 = 1.49 | 978.11
333.15 K, 15214 kPa, m1 = 1.887 | 1034.43
333.15 K, 15326 kPa, m1 = 1.49 | 982.61
333.15 K, 15924 kPa, m1 = 0.3043 | 816.79
333.15 K, 19921 kPa, m1 = 0.05681 | 783.27
333.15 K, 19984 kPa, m1 = 1.49 | 986.89
333.15 K, 24658 kPa, m1 = 1.49 | 991.01
